Legend:
human macrophages [1] = test: Human macrophage cell culture assay: surface marker expression (MFI) by flow cytometry; type: cell-based
Method: (§1) GM-CSF induces the macrophages to adopt an activated phenotype that is intermediate between the extremes of M1 or M2. […] The macrophage cell cultures were incubated with the supplemented complete medium for 24 hours after which it was removed and replaced with fresh complete medium. The macrophage cultures were then incubated for an additional three days. The three-day post treatment incubation was performed to permit assessment of durable changes in macrophage phenotypes.
For each donor's macrophages, all experiments were run in triplicate.

human macrophages [2] = test: Human macrophage cell culture assay: viability (DAPI-) by flow cytometry; type: cell-based; settings: 24 hours treatment, then three days in fresh medium; any tested concentration
Method: as §1, with “phenotypes. […] For each donor's macrophages, all experiments were run in triplicate.” for “phenotypes.”

| Compound | expression levels of the evaluated surface markers (overall) (human macrophages [1]; FIG. 5, 80 μg of MAD-BIS-1 or equal molar free BIS-1, fold change in MFI vs saline) | changes in macrophage phenotype observed with MAD-BIS-1 (human macrophages [1]; free BIS-1 at any dose) | cell viability (human macrophages [2]) | expression level of the evaluated surface markers (overall) (human macrophages [1]; FIG. 8, free BIS-2) |
| --- | --- | --- | --- | --- |
| CC(=O)c1sc(NCC(P(=O)(O)O)P(=O)(O)O)nc1C [BIS-1, 2-(4-methyl-5-acetylthiazole-2-yl-amino)ethylidene 1,1-bisphosphonic acid] | very little effect | could not be replicated | neither MAD-BIS-1 nor free BIS-1 decreased cell viability |  |
| CC(=O)c1cn(CC(C)(P(=O)(O)O)P(=O)(O)O)cn1 [BIS-2, 2-(4-acetylimidazole)ethylidene-1-methyl-1,1-bisphosphonic acid] |  |  |  | did not alter |
